Measured values: patent US20120196899A1, “METHODS AND PRODUCTS FOR TREATING INFLAMMATION” (Rock Creek Pharmaceuticals, Inc., priority 2010, published 2012)
Like-named read-outs stand apart in the source and are kept apart here.

Experiment: Plasma toxicokinetics after single i.v. bolus
Type: in vivo, Sprague-Dawley rats
Details: for concentration at 4 h / concentration at 6 h / concentration at 1 h / concentration at 2 h / concentration at 8 h / concentration at 0.5 h / half-life: Sprague-Dawley, rat, plasma; for concentration at 4 h / concentration at 6 h / concentration at 1 h / concentration at 2 h / concentration at 8 h / concentration at 0.5 h: intravenous; for half-life: iv
Description: Six rats (3 males and 3 females) were dosed per dose group. […] Plasma and brain homogenates were stored at −80° C. until analysis.
An additional 48 rats (24 males and 24 females) received a single intravenous dose via the tail vein at the same doses as mentioned above. At 30 and 360 minutes post administration, 6 rats (3 males and 3 females) per dose group, per time point were euthanized, bled via cardiac puncture, and perfused, and brains were collected. The brains were homogenized. Blood was spun, and plasma was collected. Plasma and brain homogenate were stored at −80° C.
Four aliquots of each dose level formulation were collected and stored at −80° C. The test compound, corresponding dose level, number of animals, and sample collection times for Phase I of the study are shown in Table 3. The test compound, corresponding dose level, number of animals, and sample collection times for Phase II of the study are shown in Table 4. The physical signs of each animal were monitored following administration of the test compound.
The animals were weighed prior to dosing and received a single i.v. dose of either test compound at a volume of 5 mL/kg. Blood was collected via the venus plexus (retro-orbital) into tubes containing (K2) EDTA. No more than 0.5 mL was collected per time point. […] The brain was removed, weighed, homogenized in sterile 0.9% saline at a volume equal to its weight, and stored at −80° C.
Plasma was separated according to the instructions for MICROTAINER® brand collection tubes (3 minutes, 2000×g). Plasma was decanted into microfuge tubes and stored at −80° C. Remaining test compound was stored at −80° C.
The signal was optimized for each compound by electrospray ionization (ESI) positive or negative ionization mode. A single ion mode (SIM) scan was used to optimize the Fragmentor for the precursor ion and a product ion analysis was used to identify the best fragment for analysis and to optimize the collision energy. The fragment which gave the most sensitive and specific signal was chosen.
Sample preparation. […] The amount of the test agent in the supernatant was determined by liquid chromatography tandem mass spectrometry (LC/MS/MS).
Analysis. Samples were analyzed by LC/MS/MS using an Agilent 6410 mass spectrometer coupled with an Agilent 1200 high pressure liquid chromatography (HPLC) and a CTC PAL chilled autosampler, all controlled by MassHunter software (Agilent). After separation on a hydrophilic interaction liquid chromatography (HILIC) HPLC column (Sepax) using an acetonitrile-ammonium acetate/acetic acid gradient system, peaks were analyzed by mass spectrometry (MS) using ESI ionization in multiple reaction monitoring (MRM) mode. MassHunter software was used to calculate the concentration of the test compounds in samples from the peak area using the appropriate calibration curves.
Calibration samples. Calibration curves were determined for both rat plasma and brain homogenate. Calibration samples were prepared by diluting a 50× stock solution of the test compound in PBS with blank matrix to the appropriate concentration and these samples were prepared as described above in the sample preparation.

[1] = 0.75 mg/kg, Concentration of anatabine in rat plasma, Anatabine 0.75 mg/kg, rat plasma, rats of group 3
[2] = 0.75 mg/kg, Concentration of anatabine in rat plasma, Anatabine 0.75 mg/kg, rat plasma, rats of group 4
[3] = 1 mg/kg, Concentration of anatabine in rat plasma, Anatabine 1.0 mg/kg, rat plasma, rats of group 5
[4] = 1 mg/kg, Concentration of anatabine in rat plasma, Anatabine 1.0 mg/kg, rat plasma, rats of group 6
[5] = both sexes, 0.1 mg/kg, Anatabine 0.1 mg/kg, male and female, read-out: Avg. Conc. rat plasma, combined male and female
[6] = both sexes, 0.1 mg/kg, Concentration of anatabine in rat plasma, Anatabine 0.1 mg/kg, Rat Plasma, individual rats
[7] = both sexes, 0.75 mg/kg, Anatabine 0.75 mg/kg, male and female, read-out: Avg. Conc. rat plasma, combined male and female
[8] = both sexes, 1 mg/kg, Anatabine 1.0 mg/kg, male and female, read-out: Avg. Conc. rat plasma, combined male and female

SMILES: C1=CCC(c2cccnc2)NC1 (racemic) [Anatabine, 1,2,3,6-tetrahydro-[2,3′]bipyridinyl]
- Avg. Conc. rat plasma (Anatabine 0.1 mg/kg, female, 8 hr): <LLQ
- Avg. Conc. rat plasma (Anatabine 0.1 mg/kg, female, 24 hr): <LLQ
- Avg. Conc. rat plasma, combined male and female (Anatabine 0.1 mg/kg, male and female, 8 hr): <LLQ
- Avg. Conc. rat plasma, combined male and female (Anatabine 0.1 mg/kg, male and female, 24 hr): <LLQ
- Avg. Conc. rat plasma (Anatabine 0.1 mg/kg, male, 6 hr (1st 6 hr line)): <LLQ
- Avg. Conc. rat plasma (Anatabine 0.1 mg/kg, male, 8 hr): <LLQ
- Avg. Conc. rat plasma (Anatabine 0.1 mg/kg, male, 24 hr): <LLQ
- Avg. Conc. rat plasma (Anatabine 0.75 mg/kg, female, 24 hr): <LLQ
- Avg. Conc. rat plasma, combined male and female (Anatabine 0.75 mg/kg, male and female, 24 hr): <LLQ
- Avg. Conc. rat plasma (Anatabine 0.75 mg/kg, male, 24 hr): <LLQ
- Avg. Conc. rat plasma (Anatabine 1.0 mg/kg, female, 24 hr): <LLQ
- Avg. Conc. rat plasma, combined male and female (Anatabine 1.0 mg/kg, male and female, 24 hr): <LLQ
- Avg. Conc. rat plasma (Anatabine 1.0 mg/kg, male, 24 hr): <LLQ
- concentration at 4 h (0.1 mg/kg, Concentration of anatabine in rat plasma, Anatabine 0.1 mg/kg, Rat Plasma, individual rats): 3 ng/mL
- concentration at 6 h (0.1 mg/kg, Concentration of anatabine in rat plasma, Anatabine 0.1 mg/kg, rat plasma, 6 hr, rats 2A-2C): 3 ng/mL
- concentration at 1 h [1]: 153 ng/mL
- concentration at 1 h [2]: 146 ng/mL
- concentration at 2 h [1]: 73 ng/mL
- concentration at 2 h [2]: 89 ng/mL
- concentration at 4 h [1]: 29 ng/mL
- concentration at 4 h [2]: 45 ng/mL
- concentration at 8 h (0.75 mg/kg, Concentration of anatabine in rat plasma, Anatabine 0.75 mg/kg, rat plasma, 8 hr, rats of group 3): 8 ng/mL
- concentration at 8 h (0.75 mg/kg, Concentration of anatabine in rat plasma, Anatabine 0.75 mg/kg, rat plasma, 8 hr, rats of group 4): 10 ng/mL
- concentration at 0.5 h (1 mg/kg, Concentration of anatabine in rat plasma, Anatabine 1.0 mg/kg, rat plasma, 0.5 hr, rats of group 5): 288 ng/mL
- concentration at 0.5 h (1 mg/kg, Concentration of anatabine in rat plasma, Anatabine 1.0 mg/kg, rat plasma, 0.5 hr, rats of group 6): 222 ng/mL
- concentration at 1 h [3]: 257 ng/mL
- concentration at 1 h [4]: 218 ng/mL
- concentration at 2 h [3]: 121 ng/mL
- concentration at 2 h [4]: 147 ng/mL
- concentration at 4 h [3]: 36 ng/mL
- concentration at 4 h [4]: 73 ng/mL
- concentration at 6 h (1 mg/kg, Concentration of anatabine in rat plasma, Anatabine 1.0 mg/kg, rat plasma, 6 hr, rats of group 6): 33 ng/mL
- concentration at 8 h (1 mg/kg, Concentration of anatabine in rat plasma, Anatabine 1.0 mg/kg, rat plasma, 8 hr, rats of group 5): 8 ng/mL
- concentration at 8 h (1 mg/kg, Concentration of anatabine in rat plasma, Anatabine 1.0 mg/kg, rat plasma, 8 hr, rats of group 6): 19 ng/mL
- t1/2 (anatabine 0.1 mg/kg single i.v., female rats): 1.64 ± 0.59 h
- t1/2 (anatabine 0.75 mg/kg single i.v., male rats): 1.64 ± 0.12 h
- t1/2 (anatabine 0.75 mg/kg single i.v., rat plasma, M + F): 1.68 ± 0.09 h
- t1/2 (anatabine 1.0 mg/kg single i.v., rat plasma, M + F): 1.64 ± 0.25 h
- concentration at 0.5 h (both sexes, 0.1 mg/kg, Anatabine 0.1 mg/kg, male and female, 0.5 hr (1st 0.5 hr line), n=12, read-out: Avg. Conc. rat plasma, combined male and female): 22.9 ng/mL
- concentration at 1 h [5]: 8 ng/mL
- concentration at 2 h [5]: 8.7 ng/mL
- concentration at 4 h [5]: 5.2 ng/mL
- concentration at 6 h (both sexes, 0.1 mg/kg, Anatabine 0.1 mg/kg, male and female, 6 hr (1st 6 hr line), n=6, read-out: Avg. Conc. rat plasma, combined male and female): 4.3 ng/mL
- concentration at 6 h (both sexes, 0.1 mg/kg, Anatabine 0.1 mg/kg, male and female, 6 hr (2nd 6 hr line), n=4, read-out: Avg. Conc. rat plasma, combined male and female): 4.5 ng/mL
- concentration at 1 h [6]: 10 ng/mL
- concentration at 2 h [6]: 6 ng/mL
- concentration at 0.5 h (both sexes, 0.75 mg/kg, Anatabine 0.75 mg/kg, male and female, 0.5 hr (1st 0.5 hr line), n=12, read-out: Avg. Conc. rat plasma, combined male and female): 257 ng/mL
- concentration at 0.5 h (both sexes, 0.75 mg/kg, Anatabine 0.75 mg/kg, male and female, 0.5 hr (2nd 0.5 hr line), n=6, read-out: Avg. Conc. rat plasma, combined male and female): 328 ng/mL
- concentration at 1 h [7]: 162 ng/mL
- concentration at 2 h [7]: 91.7 ng/mL
- concentration at 4 h [7]: 40 ng/mL
- concentration at 6 h (both sexes, 0.75 mg/kg, Anatabine 0.75 mg/kg, male and female, 6 hr (1st 6 hr line), n=12, read-out: Avg. Conc. rat plasma, combined male and female): 19.3 ng/mL
- concentration at 6 h (both sexes, 0.75 mg/kg, Anatabine 0.75 mg/kg, male and female, 6 hr (2nd 6 hr line), n=6, read-out: Avg. Conc. rat plasma, combined male and female): 22.5 ng/mL
- concentration at 8 h (both sexes, 0.75 mg/kg, Anatabine 0.75 mg/kg, male and female, 8 hr, read-out: Avg. Conc. rat plasma, combined male and female): 10 ng/mL
- concentration at 0.5 h (both sexes, 1 mg/kg, Anatabine 1.0 mg/kg, male and female, 0.5 hr (1st 0.5 hr line), n=12, read-out: Avg. Conc. rat plasma, combined male and female): 319 ng/mL
- concentration at 0.5 h (both sexes, 1 mg/kg, Anatabine 1.0 mg/kg, male and female, 0.5 hr (2nd 0.5 hr line), n=6, read-out: Avg. Conc. rat plasma, combined male and female): 384 ng/mL
- concentration at 1 h [8]: 231 ng/mL
- concentration at 2 h [8]: 143 ng/mL
- concentration at 4 h [8]: 51.5 ng/mL
- concentration at 6 h (both sexes, 1 mg/kg, Anatabine 1.0 mg/kg, male and female, 6 hr (1st 6 hr line), n=12, read-out: Avg. Conc. rat plasma, combined male and female): 24.3 ng/mL
- concentration at 6 h (both sexes, 1 mg/kg, Anatabine 1.0 mg/kg, male and female, 6 hr (2nd 6 hr line), n=6, read-out: Avg. Conc. rat plasma, combined male and female): 25 ng/mL
- concentration at 8 h (both sexes, 1 mg/kg, Anatabine 1.0 mg/kg, male and female, 8 hr, read-out: Avg. Conc. rat plasma, combined male and female): 12.7 ng/mL
- half-life (both sexes, 0.1 mg/kg, anatabine 0.1 mg/kg single i.v., rat plasma, M + F, read-out: t1/2 (converted)): 1.44 ± 0.48 h
- half-life (both sexes, elimination half-life (t1/2), range over the anatabine treatment groups, anatabine 0.1-1.0 mg/kg single i.v., rats M + F): 1.64 to 1.68 h
- concentration at 0.5 h (female, 0.1 mg/kg, Anatabine 0.1 mg/kg, female, 0.5 hr (1st 0.5 hr line), read-out: Avg. Conc. rat plasma): 13 ng/mL
